From publication PMC6386617 (Molecular cell, 2018)

How the values were obtained:
[1] = molecular target: human eIF4A1 (WT) (Homo sapiens, UniProt P60842, F163L/I199M); assay: UV crosslinking of γ […]-ATP; assay type: biochemical; conditions: 10 μM protein, 0.1 μM ATP, 37 °C (crosslinking); labelled compound
[2] = molecular target: human eIF4A1 (WT) (Homo sapiens, UniProt P60842); assay: UV crosslinking of γ […]-ATP; assay type: biochemical; conditions: 10 μM protein, 0.1 μM ATP, 37 °C (crosslinking); labelled compound
Chain of human eIF4A1 (WT) (Homo sapiens, UniProt P60842) (P60842 2-406): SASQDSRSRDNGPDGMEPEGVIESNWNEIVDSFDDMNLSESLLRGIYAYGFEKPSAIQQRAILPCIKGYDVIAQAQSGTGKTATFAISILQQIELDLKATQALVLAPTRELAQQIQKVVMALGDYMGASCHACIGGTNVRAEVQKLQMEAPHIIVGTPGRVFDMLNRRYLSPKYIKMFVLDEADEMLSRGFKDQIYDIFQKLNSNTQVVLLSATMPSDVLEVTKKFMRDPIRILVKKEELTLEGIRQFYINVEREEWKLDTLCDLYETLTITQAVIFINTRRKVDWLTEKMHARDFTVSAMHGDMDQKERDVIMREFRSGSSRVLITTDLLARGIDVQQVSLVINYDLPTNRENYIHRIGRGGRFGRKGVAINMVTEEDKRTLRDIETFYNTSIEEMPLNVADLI

[3] = molecular target: eIF4A1 (19-406) (Homo sapiens, UniProt P60842 19-406); assay: X-ray crystallography
Chain of eIF4A1 (19-406) (P60842 19-406): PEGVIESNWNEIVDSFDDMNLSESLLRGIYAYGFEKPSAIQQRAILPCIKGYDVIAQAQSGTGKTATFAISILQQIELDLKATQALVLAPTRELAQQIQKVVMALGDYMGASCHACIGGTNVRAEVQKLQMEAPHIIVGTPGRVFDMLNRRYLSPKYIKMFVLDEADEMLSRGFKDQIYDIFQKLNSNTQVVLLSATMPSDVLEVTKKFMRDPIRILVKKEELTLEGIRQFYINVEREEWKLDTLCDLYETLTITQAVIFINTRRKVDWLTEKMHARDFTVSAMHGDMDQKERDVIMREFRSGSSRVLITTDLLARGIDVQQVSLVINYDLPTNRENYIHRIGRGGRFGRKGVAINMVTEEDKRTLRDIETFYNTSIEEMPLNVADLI

Chain of human eIF4A1 (WT) (Homo sapiens, UniProt P60842, F163L/I199M) (P60842 2-406 F163L/I199M): as the sequence (P60842 2-406) above, with F162L, I198M counted along it

| Molecule | UV crosslinking of γ 32P-ATP; TLC ATPase assay [1] | UV crosslinking of γ 32P-ATP; TLC ATPase assay [2] | binding result [3] |
| --- | --- | --- | --- |
| Nc1ncnc2c1ncn2[C@@H]1O[C@H](COP(=O)(O)OP(=O)(O)OP(=O)(O)O)[C@@H](O)[C@H]1O [ATP] | neither single nor double mutations disrupt the basic features of eIF4A1 | tested a variety of their biochemical properties: ATP binding, ATP hydrolysis |  |
| AGAGAGAGAG (ssRNA) [(AG)5 polypurine RNA] |  |  | binds |
